This is an account of results in patent US20250333398A1, “MONOARYL AND HETARYL SUBSTITUTED INDAZOLES AND BENZIMIDAZOLES AS STING ANTAGONISTS AND THE USE THEREOF AS MEDICAMENT” (Boehringer Ingelheim International GmbH, priority 2024, published 2025).

Molecules are shown by their SMILES.

This experiment has as its system STING. The experiment can be described thus: IP10 production in human dermal microvascular endothelial cells (MVEC) after double-stranded DNA stimulation. Format: cell-based. To be noted: IP10 production after dsDNA stimulation; rounded average of multiple experiments; read-out: Inhibition of Human microvascular endothelial cells (IC50 nM). The text has this: Interferon gamma-induced protein 10 (IP-10) also known as C—X—C motif chemokine ligand 10 (CXCL10) is produced as one of the responses of the presence of double-stranded DNA in the cytoplasm and resulting STING activity. In some diseases, imbalanced STING activation can result to damage in the endothelium, for example in SAVI patients (Liu Yet al. Activated STING in a vascular and pulmonary syndrome. N Engl J Med. 2014 Aug. 7; 371(6):507-518. doi: 10.1056/NEJMoa1312625). To test the efficacy of the inventive STING inhibitors, experiments in human microvascular endothelial cells (HMVEC) are performed with the inventive compounds. Dermal HMVEC are available from Lonza, US. They are cultured in 96 well plates according to the manufacturer's instructions. Using typical protocols, the cells are serum starved and then treated with the compound for 1 hour. The cells are then treated with 400 ng/mL of dsDNA as a complex with Lipofectamine 3000 (from Thermo Fisher Scientific Inc., Waltham, MA, USA) and incubated for 6 hours. The supernatants are collected and assayed for IP10 production.
Detection of IP10 is done using the U-PLEX HUMAN IP-10 ASSAY from Meso Scale Diagnostics (1601 Research Boulevard, Rockville, Maryland 20850-3173, USA) according to manufacturer's protocols.
Broadly, the IC50 is the point on the concentration scale where inhibition reaches its midpoint. Take `CC[P@](C)(=O)c1ccc(-c2nc(-c3cccc4nn(-c5cc(C(F)F)n(C)n5)cc34)c(C3CC3)n2C)c(OC(F)(F)F)c1` [Example 7, 4-(5-cyclopropyl-2-{4-[(S)-ethyl(methyl)phosphoryl]-2-(trifluoromethoxy)phenyl}-1-methyl-1H-imidazol-4-yl)-2-[5-(difluoromethyl)-1-methyl-1H-pyrazol-3-yl]-2H-indazole]: the IC50 worked out at 21 nM. To `CC[P@](C)(=O)c1ccc(-c2nc(-c3cccc4nn(-c5cc(C(F)(F)F)n(C)n5)cc34)c(C3CC3)n2C)c(OC(F)(F)F)c1` [Example 10, 4-(5-cyclopropyl-2-{4-[(S)-ethyl(methyl)phosphoryl]-2-(trifluoromethoxy)phenyl}-1-methyl-1H-imidazol-4-yl)-2-[1-methyl-5-(trifluoromethyl)-1H-pyrazol-3-yl]-2H-indazole] belongs 11 nM. As to `Cn1nc(-n2cc3c(-c4nc(-c5ccc(P(C)(C)=O)cc5OC(F)(F)F)n(C)c4C4CC4)cccc3n2)cc1C(F)(F)F` [Example 20, 4-{5-cyclopropyl-2-[4-(dimethylphosphoryl)-2-(trifluoromethoxy)phenyl]-1-methyl-1H-imidazol-4-yl}-2-[1-methyl-5-(trifluoromethyl)-1H-pyrazol-3-yl]-2H-indazole], the IC50 worked out at 33 nM.
